Reference: patent US20250360130A1, “METHODS OF TREATING INDOLENT SYSTEMIC MASTOCYTOSIS” (Telios Pharma Inc., priority 2024, published 2025)

Assays:
human mast cells = experiment: Antigen-induced cytokine production in ISM-like and healthy mast cells; type: cell-based; conditions: two hours treatment, antigen four hours
Description: (§1) Human mast cells were derived from bone marrow CD34+ cells from six healthy donors for up to eight weeks by culturing CD34+ cells in StemSpan SFEM II (Stem Cell Technologies) supplemented with stem cell factor (SCF; 100 ng/mL; R&D System), IL-6 (R&D Systems), IL-3 (R&D Systems) and 1% penicillin/streptomycin (P/S; Gibco) for the first 10 days and in StemSpan SFEM II supplemented with SCF and IL-6 and 1% P/S for the remaining time in culture. […] Supernatant was collected and histamine levels were measured using a Histamine ELISA kit (Eagle Biosciences). […] Percent of activated mast cells was calculated as number of activated mast cells over the total number of mast cells.
Human mast cells were differentiated from bone marrow CD34+ cells from two healthy donors, cultured and sensitized in ISM-like and healthy mast cell conditions as set forth in Example 4, treated with Compound 128 for two hours and stimulated with antigen for four hours. Supernatant was collected and cytokine levels were measured using the BD Cytometric Bead Array (CBA) human soluble protein master buffer kit (Becton Dickinson) and BD CBA human soluble protein flex sets for IL-8, MCP-1, MIP-1a, IL-13 and IL-10 (Becton Dickinson). […]

BTK [1] = biological target: T1, BTK (Homo sapiens, UniProt Q06187); experiment: MRGPRX2-induced BTK phosphorylation in ISM-like mast cells; type: cell-based; design: Human mast cells were differentiated from bone marrow CD34+ cells from six healthy donors; endogenous in cells; host or cells: human mast cells differentiated from bone marrow CD34+ cells of healthy donors, cultured with SCF; conditions: 0.1 μM, C48/80 stimulation
Description: Human mast cells were differentiated from bone marrow CD34+ cells from four healthy donors and were cultured in the presence of SCF (100 ng/mL) to mimic mast cells in ISM and treated with Compound 128 for two hours prior to stimulation. Mas-related G protein-coupled receptor (MRGPRX2) agonists, Compound 48/80 (C48/80; a product of N-methyl-p-methoxyphenethylamine with formaldehyde) or Substance P (SP) were used to activate the MRGPRX2 pathway. For pBTK test, cells were stimulated with C48/80 (10 μg/mL) for ten minutes at 37° C. and cells were stained. The median fluorescence intensity of phosphorylated BTK was measured. The fold change over unstimulated control for pBTK was calculated. For cytokine test, cells were stimulated with C48/80 (10 μg/mL) or SP (30 μM) for four hours at 37° C. Supernatant was collected and cytokine levels were measured using the BD Cytometric Bead Array (CBA) human soluble protein master buffer kit (Becton Dickinson) and BD CBA human soluble protein flex sets for IL-8, MCP-1, GM-CSF and IL-13 (Becton Dickinson). Cytokine levels were measured and normalized to percent of control, with 0% representing the level of the unstimulated control.

BTK [2] = biological target: T1, BTK; experiment: BTK phosphorylation in mast cells (FIG. 19); type: cell-based; design: endogenous in cells; conditions: correlating with calcium signaling, CD63, CD203c, histamine release
BTK [3] = biological target: T1, BTK; experiment: Antigen-induced BTK phosphorylation in ISM-like mast cells; type: cell-based; design: Human mast cells were differentiated from bone marrow CD34+ cells from six healthy donors; endogenous in cells; host or cells: human mast cells differentiated from bone marrow CD34+ cells of healthy donors, cultured with SCF; conditions: ISM-like (+SCF) mast cells, two hours treatment prior to stimulation
Description: as §1
Human mast cells were differentiated from bone marrow CD34+ cells from six healthy donors, cultured and sensitized as set forth in Example 4. […] The median fluorescence intensity of phosphorylated BTK was measured. CD63 and histamine levels in these cells were measured and percent activated mast cells were calculated as set forth in Example 4. The percent of stimulated control for pBTK, activated mast cells (CD63+) and histamine levels was calculated. […]

[4] = test system: mast cell from an ISM patient; experiment: IgE-mediated calcium influx in ISM patient mast cells (FIG. 17); type: cell-based, human; conditions: presence of SCF, prior to antigen stimulation
Description: Mast cell from an ISM patient was treated with Compound 128 at 50 mg, 75 mg, 100 mg, and 150 mg BID dose prior to antigen (Ag) stimulation. ISM 3-2 mast cell donor MC 1061-004 C1D8 D39. Experiments performed in the presence of SCF. […] Percent of Control (POC) based on Area-under-Curve above baseline (1st value).

T1 sequence (Q06187 whole entry): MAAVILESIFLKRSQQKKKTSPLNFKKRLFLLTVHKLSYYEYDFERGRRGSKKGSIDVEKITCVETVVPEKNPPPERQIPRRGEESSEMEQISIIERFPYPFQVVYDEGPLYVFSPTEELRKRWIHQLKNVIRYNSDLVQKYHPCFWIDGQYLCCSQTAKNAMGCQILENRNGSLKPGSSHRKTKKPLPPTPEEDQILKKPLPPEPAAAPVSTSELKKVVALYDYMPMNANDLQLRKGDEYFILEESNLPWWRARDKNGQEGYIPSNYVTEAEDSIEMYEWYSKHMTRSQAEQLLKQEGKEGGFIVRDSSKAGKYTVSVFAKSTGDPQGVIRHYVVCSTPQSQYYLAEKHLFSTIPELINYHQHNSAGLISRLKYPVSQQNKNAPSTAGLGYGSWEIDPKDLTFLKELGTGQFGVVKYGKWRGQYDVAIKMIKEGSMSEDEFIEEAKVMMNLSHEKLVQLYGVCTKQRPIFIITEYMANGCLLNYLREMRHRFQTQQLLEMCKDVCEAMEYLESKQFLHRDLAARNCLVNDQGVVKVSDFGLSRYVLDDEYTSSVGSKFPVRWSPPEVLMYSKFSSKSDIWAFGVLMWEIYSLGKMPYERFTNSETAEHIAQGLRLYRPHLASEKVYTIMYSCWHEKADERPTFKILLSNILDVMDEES

- MRGPRX2-induced BTK phosphorylation (BTK [1]): inhibited
- inhibition of BTK phosphorylation in mast cells (BTK [2]): high potency
- IgE-mediated BTK phosphorylation (BTK [3]): potently inhibits
Structure (SMILES): C=CC(=O)N1CCC(F)(CNc2ncnc(N)c2-c2ccc(Oc3ccccc3)cc2)CC1 [Compound 128, 1-(4-(((6-amino-5-(4-phenoxyphenyl)pyrimidin-4-yl)amino)methyl)-4-fluoropiperidin-1-yl)prop-2-en-1-one]
- IgE-mediated cytokine production (IL-8, MCP-1, MIP-1a, IL-13, IL-10) (human mast cells): inhibited
- IgE-mediated calcium influx [4]: potently inhibits
